Data reported in patent publication US20250145585A1, “HETEROCYCLIC INHIBITORS OF IGF-1R FOR TREATMENT OF DISEASE” (HORIZON THERAPEUTICS IRELAND DAC, priority 2023, published 2025).

Molecular target: T1, IGF-1R (Homo sapiens, UniProt P08069)
T1 construct: expressed in transfected cells
Experiment: Example B-1: IGF-1R Assay (PC3 cells stimulated with IGF1, AlphaLISA on cell lysates)
Type: cell-based
Settings: compound two hours, IGF1 200 ng/mL for 30 min, read-out: IC50, Biological Activity against IGF-1R (Table B1)
Protocol: 50K PC3 cells were seeded on day 1 in 50 μL of media in 96-well plate and incubated overnight at 37° C., 5% CO2. On day 2, all cells were expected to be at 80-90% confluency. Cells were starved for two hours by changing the media to 90 μL of EMEM serum-free media and incubated for 2 hours. Next, cells were treated with 10 μL of 10× concentrated and 3× serially diluted compounds for two hours. It makes 1× of compounds in 100 μL media. This was followed by stimulation of cells with 11×IGF1 for 30 min in 10 μL of serum-free EMEM media at the final concentration of 200 ng/mL.
The media was removed and replaced by 50 μL of 1× lysis buffer from the AlphaLISA kit (with 1× of cOmplete™ protease inhibitor). The plates were sealed, and cells were allowed to lyse for 10 min in the shaker before storing the plate at −20° C. until used. The AlphaLISA assay with processed cell lysates were performed as described in the protocol. Briefly, 10 μL of the undiluted sample were loaded to 384 well Optiplates and 5 μL of the acceptor mix (as described in the AlphaLISA kit) was added to each well. The plates were sealed and briefly vortexed followed by the incubation at RT for 3 hours. In the dark, 5 μL of donor mix was added to each well. All plates were sealed and stored at RT overnight. The plates were read in EnVision reader using standard AlphaLISA settings.
Compound activity was analyzed using CBIS data analysis suite (Cheminnovation, CA). Percentage inhibition was calculated using the following formula: % I-hibition=100%×(1−(mea−RLU of test sample−mean RLU of vehicle control)/(mean-RLU of EC80 control−mean RLU of vehicle control)). The activity for representative examples of the invention is shown in the following table, wherein A: IC50≤500 nM; B: 500 nM<IC50≤2 μM; C: 2 μM<IC50≤10 μM; D: IC50>10 μM.

T1 sequence (P08069 31-1367): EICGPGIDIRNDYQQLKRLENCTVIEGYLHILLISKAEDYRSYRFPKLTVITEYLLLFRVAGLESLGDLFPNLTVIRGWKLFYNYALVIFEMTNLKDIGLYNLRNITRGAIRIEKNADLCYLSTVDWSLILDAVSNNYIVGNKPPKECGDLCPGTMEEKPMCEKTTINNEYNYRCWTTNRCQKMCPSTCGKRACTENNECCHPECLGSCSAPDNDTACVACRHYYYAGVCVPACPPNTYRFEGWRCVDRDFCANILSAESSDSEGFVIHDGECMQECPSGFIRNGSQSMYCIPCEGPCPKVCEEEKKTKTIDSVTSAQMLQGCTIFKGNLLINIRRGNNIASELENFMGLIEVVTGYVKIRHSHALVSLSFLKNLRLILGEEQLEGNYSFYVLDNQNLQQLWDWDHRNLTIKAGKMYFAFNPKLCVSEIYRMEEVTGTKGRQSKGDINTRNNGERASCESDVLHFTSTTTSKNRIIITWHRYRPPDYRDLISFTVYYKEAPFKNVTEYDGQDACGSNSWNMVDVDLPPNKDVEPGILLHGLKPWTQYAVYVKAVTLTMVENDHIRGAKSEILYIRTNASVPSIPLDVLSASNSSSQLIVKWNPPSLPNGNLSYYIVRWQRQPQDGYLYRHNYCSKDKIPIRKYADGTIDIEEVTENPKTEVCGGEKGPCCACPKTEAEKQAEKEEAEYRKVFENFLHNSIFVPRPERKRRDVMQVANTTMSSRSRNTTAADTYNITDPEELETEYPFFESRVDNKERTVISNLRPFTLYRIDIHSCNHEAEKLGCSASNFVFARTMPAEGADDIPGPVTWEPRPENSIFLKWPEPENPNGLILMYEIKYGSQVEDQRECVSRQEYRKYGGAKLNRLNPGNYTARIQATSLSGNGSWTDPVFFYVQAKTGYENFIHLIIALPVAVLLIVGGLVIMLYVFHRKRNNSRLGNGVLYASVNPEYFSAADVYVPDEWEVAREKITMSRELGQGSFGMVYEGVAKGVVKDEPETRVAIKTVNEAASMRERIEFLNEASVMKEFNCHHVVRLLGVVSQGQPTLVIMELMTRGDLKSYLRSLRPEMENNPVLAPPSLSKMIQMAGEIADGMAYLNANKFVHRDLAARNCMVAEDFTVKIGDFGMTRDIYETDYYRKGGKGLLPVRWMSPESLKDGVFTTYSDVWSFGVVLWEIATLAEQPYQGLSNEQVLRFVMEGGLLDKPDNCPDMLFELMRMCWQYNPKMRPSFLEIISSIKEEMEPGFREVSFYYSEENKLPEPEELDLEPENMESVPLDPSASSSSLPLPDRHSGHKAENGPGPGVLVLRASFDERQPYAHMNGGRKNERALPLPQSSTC

| Compound | IC50 [nM] |
| --- | --- |
| CC(C)Nc1cc(CN2C(=O)N(c3ccc(C45CC(C)(C4)C5)cc3)C(=O)C2(C)C)ccn1 [Compound 112, 1-((2-(isopropylamino)pyridin-4-yl)methyl)-5,5-dimethyl-3-(4-(3-methylbicyclo[1.1.1]pentan-1-yl)phenyl)imidazolidine-2,4-dione] | 2000 to 10000 |
| CC1(C)CC(Nc2cc(CN3C(=O)N(c4ccc(C5(C(F)(F)F)CC5)cc4)C(=O)C3(C)C)ccn2)CCO1 (stereo not shown) [Compound 113, 1-((2-((2,2-dimethyltetrahydro-2H-pyran-4-yl)amino)pyridin-4-yl)methyl)-5,5-dimethyl-3-(4-(1-(trifluoromethyl)cyclopropyl)phenyl) imidazolidine-2,4-dione] | ≤ 500 |
| CC(C)Nc1cc(CN2C(=O)N(c3ccc(C4(C(F)(F)F)CCC4)cc3)C(=O)C2(C)C)ccn1 [Compound 115, 1-((2-(isopropylamino)pyridin-4-yl)methyl)-5,5-dimethyl-3-(4-(1-(trifluoromethyl)cyclobutyl)phenyl) imidazolidine-2,4-dione] | ≤ 500 |
| CC(C)Nc1cc(CN2C(=O)N(c3ccc(C4(C)CC(F)(F)C4)cc3)C(=O)C2(C)C)ccn1 [Compound 116, 3-(4-(3,3-difluoro-1-methylcyclobutyl)phenyl)-1-((2-(isopropylamino)pyridin-4-yl)methyl)-5,5-dimethylimidazolidine-2,4-dione] | ≤ 500 |
| CC(C)Nc1cc(CN2C(=O)N(c3ccc(C45CC(C4)C5)cc3)C(=O)C2(C)C)ccn1 [Compound 117, 3-(4-(bicyclo[1.1.1]pentan-1-yl)phenyl)-1-((2-(isopropylamino)pyridin-4-yl)methyl)-5,5-dimethylimidazolidine-2,4-dione] | ≤ 500 |
| CC1(C)C(=O)N(c2ccc(S(F)(F)(F)(F)F)cc2)C(=O)N1Cc1ccnc(N)c1 [Compound 179, 1-((2-aminopyridin-4-yl)methyl)-5,5-dimethyl-3-(4-(pentafluoro-16-sulfanyl)phenyl)imidazolidine-2,4-dione] | ≤ 500 |
| CC1(C)C(=O)N(c2ccc3c(C(F)(F)F)n[nH]c3c2)C(=O)N1Cc1ccnc(N)c1 [Compound 254, 1-((2-aminopyridin-4-yl)methyl)-5,5-dimethyl-3-(3-(trifluoromethyl)-1H-indazol-6-yl)imidazolidine-2,4-dione] | 500 to 2000 |
| CCc1cn(C)c2cc(N3C(=O)N(Cc4ccnc(NC(C)C)c4)C(C)(C)C3=O)ccc12 [Compound 257, 3-(3-ethyl-1-methyl-1H-indol-6-yl)-1-((2-(isopropylamino)pyridin-4-yl)methyl)-5,5-dimethylimidazolidine-2,4-dione] | 500 to 2000 |
| CC(C)(C)c1ccc(N2C(=O)N(Cc3ccnc(NC4CCOCC4)c3)C(C)(C)C2=O)cc1 [Compound 266, 3-(4-(tert-butyl)phenyl)-5,5-dimethyl-1-((2-((tetrahydro-2H-pyran-4-yl)amino)pyridin-4-yl)methyl)imidazolidine-2,4-dione] | ≤ 500 |
| COC[C@@H](C)Nc1cc(CN2C(=O)N(c3ccc(C(C)(C)C)cc3)C(=O)C2(C)C)ccn1 [Compound 268, (R)-3-(4-(tert-butyl)phenyl)-1-((2-((1-methoxypropan-2-yl)amino)pyridin-4-yl)methyl)-5,5-dimethylimidazolidine-2,4-dione] | ≤ 500 |
| CC(C)(C)c1ccc(N2C(=O)N(Cc3ccnc(NC4CC(F)(F)C4)c3)C(C)(C)C2=O)cc1 [Compound 270, 3-(4-(tert-butyl)phenyl)-1-((2-((3,3-difluorocyclobutyl)amino)pyridin-4-yl)methyl)-5,5-dimethylimidazolidine-2,4-dione] | ≤ 500 |
| CC(C)(C)c1ccc(N2C(=O)N(Cc3ccnc(NC4COC4)c3)C(C)(C)C2=O)cc1 [Compound 275, 3-(4-(tert-butyl)phenyl)-5,5-dimethyl-1-((2-(oxetan-3-ylamino)pyridin-4-yl)methyl)imidazolidine-2,4-dione] | ≤ 500 |
| CC(C)(C)c1ccc(N2C(=O)N(Cc3ccnc(NC45CC(C4)C5)c3)C(C)(C)C2=O)cc1 [Compound 276, 1-((2-(bicyclo[1.1.1]pentan-1-ylamino)pyridin-4-yl)methyl)-3-(4-(tert-butyl)phenyl)-5,5-dimethylimidazolidine-2,4-dione] | ≤ 500 |
| Nc1cc(CN2C(=O)N(c3ccc(SC(F)(F)F)cc3)C(=O)C23CCCCC3)ccn1 [Compound 293, 1-((2-aminopyridin-4-yl)methyl)-3-(4-((trifluoromethyl)thio)phenyl)-1,3-diazaspiro[4.5]decane-2,4-dione] | 2000 to 10000 |
| Nc1cc(CN2C(=O)N(c3ccc(SC(F)(F)F)cc3)C(=O)[C@@H]2c2ccccc2)ccn1 [Compound 294, (S)-1-((2-aminopyridin-4-yl)methyl)-5-phenyl-3-(4-((trifluoromethyl)thio)phenyl)imidazolidine-2,4-dione] | > 10000 |

Other lines, results leading:

| IC50 [nM] | Compound |
| --- | --- |
| ≤ 500 | COC[C@H](C)Nc1cc(CN2C(=O)N(c3ccc(C4(C(F)(F)F)CC4)cc3)C(=O)C2(C)C)ccn1 [Compound 105, (S)-1-((2-((1-methoxypropan-2-yl)amino)pyridin-4-yl)methyl)-5,5-dimethyl-3-(4-(1-(trifluoromethyl)cyclopropyl)phenyl) imidazolidine-2,4-dione] |
| ≤ 500 | CC(C)Nc1cc(CN2C(=O)N(c3ccc(C4CC4(C)C)cc3)C(=O)C2(C)C)ccn1 (stereo not shown) [Compound 108, 3-(4-(2,2-dimethylcyclopropyl)phenyl)-1-((2-(isopropylamino)pyridin-4-yl)methyl)-5,5-dimethylimidazolidine-2,4-dione] |
| ≤ 500 | CC(C)Nc1cc(CN2C(=O)N(c3ccc(S(F)(F)(F)(F)F)cc3)C(=O)C2(C)C)ccn1 [Compound 178, 1-((2-(isopropylamino)pyridin-4-yl)methyl)-5,5-dimethyl-3-(4-(pentafluoro-16-sulfanyl)phenyl)imidazolidine-2,4-dione] |
| ≤ 500 | CC(C)Nc1cc(CN2C(=O)N(c3ccc(C(C)(C)C)cc3)C(=O)C2(C)C)ccn1 [Compound 263, 3-(4-(tert-butyl)phenyl)-1-((2-(isopropylamino)pyridin-4-yl)methyl)-5,5-dimethylimidazolidine-2,4-dione] |
| ≤ 500 | COCC(C)Nc1cc(CN2C(=O)N(c3ccc(C(C)(C)C)cc3)C(=O)C2(C)C)ccn1 (stereo not shown) [Compound 265, 3-(4-(tert-butyl)phenyl)-1-((2-((1-methoxypropan-2-yl)amino)pyridin-4-yl)methyl)-5,5-dimethylimidazolidine-2,4-dione] |
| ≤ 500 | COC[C@H](C)Nc1cc(CN2C(=O)N(c3ccc(C(C)(C)C)cc3)C(=O)C2(C)C)ccn1 [Compound 269, (S)-3-(4-(tert-butyl)phenyl)-1-((2-((1-methoxypropan-2-yl)amino)pyridin-4-yl)methyl)-5,5-dimethylimidazolidine-2,4-dione] |
| 500 to 2000 | CC(C)(C)c1ccc(N2C(=O)N(Cc3ccnc(NC4(CO)CC4)c3)C(C)(C)C2=O)cc1 [Compound 271, 3-(4-(tert-butyl)phenyl)-1-((2-((1-(hydroxymethyl)cyclopropyl)amino)pyridin-4-yl)methyl)-5,5-dimethylimidazolidine-2,4-dione] |
| ≤ 500 | CC1(Nc2cc(CN3C(=O)N(c4ccc(C(C)(C)C)cc4)C(=O)C3(C)C)ccn2)CC1 [Compound 273, 3-(4-(tert-butyl)phenyl)-5,5-dimethyl-1-((2-((1-methylcyclopropyl)amino)pyridin-4-yl)methyl) imidazolidine-2,4-dione] |
| 500 to 2000 | COCC(C)(C)Nc1cc(CN2C(=O)N(c3ccc(C(C)(C)C)cc3)C(=O)C2(C)C)ccn1 [Compound 274, 3-(4-(tert-butyl)phenyl)-1-((2-((1-methoxy-2-methylpropan-2-yl)amino)pyridin-4-yl)methyl)-5,5-dimethylimidazolidine-2,4-dione] |
| 500 to 2000 | Nc1cc(CN2C(=O)N(c3ccc(SC(F)(F)F)cc3)C(=O)[C@@H]2Cc2ccccc2)ccn1 [Compound 289, (S)-1-((2-aminopyridin-4-yl)methyl)-5-benzyl-3-(4-((trifluoromethyl)thio)phenyl)imidazolidine-2,4-dione] |
| > 10000 | CC(C)[C@H]1C(=O)N(c2ccc(SC(F)(F)F)cc2)C(=O)N1Cc1ccnc(N)c1 [Compound 290, (S)-1-((2-aminopyridin-4-yl)methyl)-5-isopropyl-3-(4-((trifluoromethyl)thio)phenyl)imidazolidine-2,4-dione] |
| 500 to 2000 | Nc1cc(CN2C(=O)N(c3ccc(SC(F)(F)F)cc3)C(=O)C23CCCC3)ccn1 [Compound 291, ((2-aminopyridin-4-yl)methyl)-3-(4-((trifluoromethyl)thio)phenyl)-1,3-diazaspiro[4.4]nonane-2,4-dione] |
| 500 to 2000 | Nc1cc(CN2C(=O)N(c3ccc(SC(F)(F)F)cc3)C(=O)C23CCC3)ccn1 [Compound 292, 5-((2-aminopyridin-4-yl)methyl)-7-(4-((trifluoromethyl)thio)phenyl)-5,7-diazaspiro[3.4]octane-6,8-dione] |
